Measured values from US6916915B1, “Stressor regulated genes” (Duke University, priority 1998, dated 2005).

Tested on: C. elegans
Assay: Reverse-Northern dot-blot analysis of steady-state mRNA levels after cadmium exposure
Type: in vivo, Caenorhabditis elegans
Conditions: for Fold-change in mRNA levels following cadmium exposure, DDRT1: clone DDRT1; for Fold-change in mRNA levels following cadmium exposure, DDRT2: clone DDRT2; for Fold-change in mRNA levels following cadmium exposure, DDRT3: clone DDRT3; for Fold-change in mRNA levels following cadmium exposure, DDRT4: clone DDRT4; for Fold-change in mRNA levels following cadmium exposure, DDRT5: clone DDRT5; for Fold-change in mRNA levels following cadmium exposure, DDRT6: clone DDRT6; for Fold-change in mRNA levels following cadmium exposure, DDRT7: clone DDRT7; for Fold-change in mRNA levels following cadmium exposure, DDRT9: clone DDRT9; for Fold-change in mRNA levels following cadmium exposure, DDRT10: clone DDRT10; for Fold-change in mRNA levels following cadmium exposure, DDRT12: clone DDRT12; for Fold-change in mRNA levels following cadmium exposure, DDRT15: clone DDRT15; for Fold-change in mRNA levels following cadmium exposure, DDRT16: clone DDRT16; for Fold-change in mRNA levels following cadmium exposure, DDRT17: clone DDRT17; for Fold-change in mRNA levels following cadmium exposure, DDRT18: clone DDRT18; for Fold-change in mRNA levels following cadmium exposure, DDRT19: clone DDRT19; for Fold-change in mRNA levels following cadmium exposure, DDRT20: clone DDRT20; for Fold-change in mRNA levels following cadmium exposure, DDRT21D: clone DDRT21D; for Fold-change in mRNA levels following cadmium exposure, DDRT21U: clone DDRT21U; for Fold-change in mRNA levels following cadmium exposure, DDRT22: clone DDRT22
Experimental: Growth and isolation of C. elegans—The N2 strain of C. elegans was grown in liquid S medium (0.1M NaCl, 50 mM potassium phosphate, pH 6.0, 5 μg/ml cholesterol, 10 mM potassium citrate, 3 mM CaCl2, 3 mM MgCl2, 50 μM EDTA, 25 μM FeSO4, 10 μM MnCl2, 10 μM ZnSO4 and 1 μM CuSO4) using E. coli OP50 as a food source (Brenner, S. (1974) Genetics 77, 71-94). In experiments where nematodes were exposed to cadmium, the medium was supplemented with 100 μM CdCl2 (Freedman, J. H. et al. (1993) J. Biol. Chem. 268, 2554-2564). C. elegans were grown in the presence of metal for 8 h or 24 h at ˜20° C. Nematodes were then collected following centrifugation at 800×g for 5 min. Pellets were suspended in 5 mM NaCl containing 35% sucrose (final concentration) and viable nematodes were collected from the top of the solution following centrifugation at 1000×g for 5 min at 4° C. Nematodes were then washed three times by suspension in M9 buffer (22 mM KH2PO4, 42 mM Na2HPO4, 85 mM NaCl, 1 mM MgSO4) followed by sedimentation at 800×g. Washed nematode pellets were finally suspended in a small volume of M9 buffer, rapidly frozen in liquid nitrogen and stored at −80° C.
RNA isolation—Total RNA was isolated from mix-stage populations of C. elegans exposed to 100 μM CdCl2 for 8 h and 24 h and control, non-exposed nematodes. Frozen worms were first ground into a fine powder using a liquid nitrogen-cooled mortar and pestle. Powdered C. elegans (200 mg) were then homogenized in 2 ml of TRIzol (GIBCO/BRL). RNA was then collected from the aqueous phase following the addition of chloroform, precipitated by adding isopropyl alcohol and then air-dried. The dried RNA pellet was then dissolved in diethyl pyrocarbonate (DEPC)-treated water. For some experiments, poly(A^+) RNA was subsequently isolated using the Poly(A) Tract System following manufacturer's instructions (Promega).
Reverse-Northern dot-blot analysis—Changes in the steady-state levels of differentially expressed mRNAs in C. elegans following cadmium-exposure were also determined by reverse-Northern dot-blot analysis by the modified procedure of Zhang et al. (Cummins, C. et al. (1988) Mol. Cell. Biol 8, 5334-5349). Briefly, differentially expressed cDNAs that were previously cloned into pGEM-T were amplified using primers that anneal to the T7 and SP6 RNA polymerase binding sites, which flank the cDNA insert. cDNAs were amplified and subsequently purified using a PCR-spin column (QIAGEN). Approximately 100 ng of each amplified cDNA were denatured by mixing with 0.1N NaOH (final concentration) and incubating at 100° C. for 5 min. The solution was neutralized following the addition of 3×SSC (final concentration) and then the volume adjusted to 700 μl with dH2O. 200-μl of each sample was applied to one of three Nytran membranes in a Bio-Dot microfiltration apparatus (BioRad). Membranes were then baked for 30 min at 80° C. under vacuum. As positive and loading controls 100 ng of mtl-1 cDNA and myosin light chain DNA were also applied to each membrane, respectively.
Three pools of single-stranded ^32P-labeled cDNA probes were prepared from poly(A^+) RNA isolated from control, 8 h and 24 h cadmium-treated nematodes. cDNAs were generated from a mixture of mRNAs in a 25 μl reverse transcriptase reactions which contained 2 μg poly(A^+) RNA, 1 μg oligo (dT)18 primer, reverse transcriptase buffer, 800 μM DATP, dGTP and dTTP, 4.5 μM dCTP, 100 μCi [α-^32P]dCTP (3000 Ci/mmol), 20 units RNase inhibitor and 200 units Moloney murine leukemia virus reverse transcriptase. The reaction mixture was incubated at 37° C. for 1 h, then at 95° C. for 5 min to terminate the reaction. Unincorporated nucleotides were separated from the labeled cDNAs by using a G-25 spin column (Boehringer Mannheim). Equal amounts (5×10^6 cpm/ml) of each radioactive cDNA mixture were heat-denatured and then hybridized separately to one of the three membranes at 42° C. for 16 h in hybridization buffer. […]

[1] = cadmium exposure, time not stated
[2] = 8 hours, 100 μM CdCl2, relative to non-exposed, normalized to myosin light chain mRNA
[3] = 24 hours, 100 μM CdCl2, relative to non-exposed, normalized to myosin light chain mRNA

[Cl][Cd][Cl] [cadmium, CdCl2]
increase in level of expression, forty-six of the clones (24-h exposure): up to 6 fold
level of expression of myosin light-chain mRNA (after cadmium treatment, loading control on dot blot): remained constant
induction of mtl-1 mRNA (after cadmium treatment, positive control on dot blot, time not stated): ~5 fold
increase in the level of mRNA DDRT30 (collagen col-36) [1]: 3 fold
increase in the level of mRNA DDRT33D (predicted cuticle collagen) [1]: 3 fold
Fold-change in mRNA levels following cadmium exposure, DDRT1 [2]: 2.2 fold
Fold-change in mRNA levels following cadmium exposure, DDRT1 [3]: 3.2 fold
Fold-change in mRNA levels following cadmium exposure, DDRT2 [2]: 3.1 fold
Fold-change in mRNA levels following cadmium exposure, DDRT2 [3]: 3.9 fold
Fold-change in mRNA levels following cadmium exposure, DDRT3 [2]: 2.0 fold
Fold-change in mRNA levels following cadmium exposure, DDRT3 [3]: 2.4 fold
Fold-change in mRNA levels following cadmium exposure, DDRT4 [2]: 2.5 fold
Fold-change in mRNA levels following cadmium exposure, DDRT4 [3]: 2.8 fold
Fold-change in mRNA levels following cadmium exposure, DDRT5 [2]: 3.2 fold
Fold-change in mRNA levels following cadmium exposure, DDRT5 [3]: 3.9 fold
Fold-change in mRNA levels following cadmium exposure, DDRT6 [2]: 4.7 fold
Fold-change in mRNA levels following cadmium exposure, DDRT6 [3]: 5.0 fold
Fold-change in mRNA levels following cadmium exposure, DDRT7 [2]: 3.6 fold
Fold-change in mRNA levels following cadmium exposure, DDRT7 [3]: 4.0 fold
Fold-change in mRNA levels following cadmium exposure, DDRT9 [2]: 3.5 fold
Fold-change in mRNA levels following cadmium exposure, DDRT9 [3]: 2.8 fold
Fold-change in mRNA levels following cadmium exposure, DDRT10 [2]: 2.7 fold
Fold-change in mRNA levels following cadmium exposure, DDRT10 [3]: 2.5 fold
Fold-change in mRNA levels following cadmium exposure, DDRT12 [2]: 3.0 fold
Fold-change in mRNA levels following cadmium exposure, DDRT12 [3]: 3.2 fold
Fold-change in mRNA levels following cadmium exposure, DDRT15 [2]: 2.8 fold
Fold-change in mRNA levels following cadmium exposure, DDRT15 [3]: 3.1 fold
Fold-change in mRNA levels following cadmium exposure, DDRT16 [2]: 4.3 fold
Fold-change in mRNA levels following cadmium exposure, DDRT16 [3]: 4.9 fold
Fold-change in mRNA levels following cadmium exposure, DDRT17 [2]: 3.7 fold
Fold-change in mRNA levels following cadmium exposure, DDRT17 [3]: 5.7 fold
Fold-change in mRNA levels following cadmium exposure, DDRT18 [2]: 2.2 fold
Fold-change in mRNA levels following cadmium exposure, DDRT18 [3]: 2.9 fold
Fold-change in mRNA levels following cadmium exposure, DDRT19 [2]: 2.7 fold
Fold-change in mRNA levels following cadmium exposure, DDRT19 [3]: 3.9 fold
Fold-change in mRNA levels following cadmium exposure, DDRT20 [2]: 2.6 fold
Fold-change in mRNA levels following cadmium exposure, DDRT20 [3]: 2.8 fold
Fold-change in mRNA levels following cadmium exposure, DDRT21D [2]: 2.2 fold
Fold-change in mRNA levels following cadmium exposure, DDRT21D [3]: 4.2 fold
Fold-change in mRNA levels following cadmium exposure, DDRT21U [2]: 2.2 fold
Fold-change in mRNA levels following cadmium exposure, DDRT21U [3]: 2.6 fold
Fold-change in mRNA levels following cadmium exposure, DDRT22 [2]: 2.5 fold
Fold-change in mRNA levels following cadmium exposure, DDRT22 [3]: 3.3 fold
Fold-change in mRNA levels following cadmium exposure, DDRT23 (clone DDRT23, 8 hours, 100 μM CdCl2, relative to non-exposed, normalized to myosin light chain mRNA): 3.3 fold
